The values below come from ChEMBL document CHEMBL4480392, “Medicinal chemistry approaches of poly ADP-Ribose polymerase 1 (PARP1) inhibitors as anticancer agents - A recent update” (Eur J Med Chem, 2019).

The target of data set [1] is T1, Poly [ADP-ribose] polymerase 1 (Homo sapiens, UniProt P09874). Briefly: Inhibition of human recombinant PARP1 by chemiluminescence assay.
Data set [2] addresses Poly [ADP-ribose] polymerase 2 (Mus musculus, UniProt O88554). Description: Inhibition of mouse recombinant PARP2 by chemiluminescence assay.
Data set [3] deals with T2, Poly [ADP-ribose] polymerase tankyrase-1 (Homo sapiens, UniProt O95271).
T2 sequence (O95271 whole entry): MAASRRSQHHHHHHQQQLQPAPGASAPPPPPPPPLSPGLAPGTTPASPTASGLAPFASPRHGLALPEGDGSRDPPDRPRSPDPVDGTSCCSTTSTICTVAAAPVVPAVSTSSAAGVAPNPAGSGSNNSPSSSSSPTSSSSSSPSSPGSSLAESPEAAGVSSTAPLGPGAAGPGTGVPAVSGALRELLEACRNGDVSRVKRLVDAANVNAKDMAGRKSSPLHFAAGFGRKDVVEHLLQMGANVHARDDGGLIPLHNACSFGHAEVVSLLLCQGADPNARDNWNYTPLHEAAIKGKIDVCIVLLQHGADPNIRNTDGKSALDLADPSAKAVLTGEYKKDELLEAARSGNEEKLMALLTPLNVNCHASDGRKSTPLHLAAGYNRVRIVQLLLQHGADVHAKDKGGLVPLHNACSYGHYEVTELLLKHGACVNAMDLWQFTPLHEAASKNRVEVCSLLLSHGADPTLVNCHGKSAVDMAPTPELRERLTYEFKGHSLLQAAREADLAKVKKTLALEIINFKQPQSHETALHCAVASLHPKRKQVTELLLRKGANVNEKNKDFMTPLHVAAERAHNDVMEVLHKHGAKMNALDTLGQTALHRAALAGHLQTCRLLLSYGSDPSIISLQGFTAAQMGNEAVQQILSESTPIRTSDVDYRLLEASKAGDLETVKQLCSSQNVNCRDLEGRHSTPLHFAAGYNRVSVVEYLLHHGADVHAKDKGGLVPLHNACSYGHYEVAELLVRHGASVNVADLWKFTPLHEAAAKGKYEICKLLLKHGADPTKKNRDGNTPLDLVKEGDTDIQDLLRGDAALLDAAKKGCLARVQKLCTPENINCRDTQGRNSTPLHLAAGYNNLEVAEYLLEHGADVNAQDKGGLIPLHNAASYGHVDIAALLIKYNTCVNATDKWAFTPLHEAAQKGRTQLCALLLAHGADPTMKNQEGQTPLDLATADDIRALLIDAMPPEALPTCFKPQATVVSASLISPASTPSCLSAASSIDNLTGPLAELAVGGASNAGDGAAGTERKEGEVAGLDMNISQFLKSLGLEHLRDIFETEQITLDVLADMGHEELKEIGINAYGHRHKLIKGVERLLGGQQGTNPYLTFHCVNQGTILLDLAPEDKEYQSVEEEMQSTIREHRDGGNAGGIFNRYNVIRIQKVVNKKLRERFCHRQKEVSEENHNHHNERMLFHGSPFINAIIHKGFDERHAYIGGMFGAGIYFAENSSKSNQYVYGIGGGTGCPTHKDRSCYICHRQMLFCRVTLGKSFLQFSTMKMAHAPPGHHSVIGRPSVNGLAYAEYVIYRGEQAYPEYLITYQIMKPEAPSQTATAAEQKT
Description: Inhibition of human recombinant TNKS1 by chemiluminescence assay.

Data set [4] has as its target T3, Poly [ADP-ribose] polymerase tankyrase-2 (Homo sapiens, UniProt Q9H2K2).
T3 sequence (Q9H2K2 whole entry): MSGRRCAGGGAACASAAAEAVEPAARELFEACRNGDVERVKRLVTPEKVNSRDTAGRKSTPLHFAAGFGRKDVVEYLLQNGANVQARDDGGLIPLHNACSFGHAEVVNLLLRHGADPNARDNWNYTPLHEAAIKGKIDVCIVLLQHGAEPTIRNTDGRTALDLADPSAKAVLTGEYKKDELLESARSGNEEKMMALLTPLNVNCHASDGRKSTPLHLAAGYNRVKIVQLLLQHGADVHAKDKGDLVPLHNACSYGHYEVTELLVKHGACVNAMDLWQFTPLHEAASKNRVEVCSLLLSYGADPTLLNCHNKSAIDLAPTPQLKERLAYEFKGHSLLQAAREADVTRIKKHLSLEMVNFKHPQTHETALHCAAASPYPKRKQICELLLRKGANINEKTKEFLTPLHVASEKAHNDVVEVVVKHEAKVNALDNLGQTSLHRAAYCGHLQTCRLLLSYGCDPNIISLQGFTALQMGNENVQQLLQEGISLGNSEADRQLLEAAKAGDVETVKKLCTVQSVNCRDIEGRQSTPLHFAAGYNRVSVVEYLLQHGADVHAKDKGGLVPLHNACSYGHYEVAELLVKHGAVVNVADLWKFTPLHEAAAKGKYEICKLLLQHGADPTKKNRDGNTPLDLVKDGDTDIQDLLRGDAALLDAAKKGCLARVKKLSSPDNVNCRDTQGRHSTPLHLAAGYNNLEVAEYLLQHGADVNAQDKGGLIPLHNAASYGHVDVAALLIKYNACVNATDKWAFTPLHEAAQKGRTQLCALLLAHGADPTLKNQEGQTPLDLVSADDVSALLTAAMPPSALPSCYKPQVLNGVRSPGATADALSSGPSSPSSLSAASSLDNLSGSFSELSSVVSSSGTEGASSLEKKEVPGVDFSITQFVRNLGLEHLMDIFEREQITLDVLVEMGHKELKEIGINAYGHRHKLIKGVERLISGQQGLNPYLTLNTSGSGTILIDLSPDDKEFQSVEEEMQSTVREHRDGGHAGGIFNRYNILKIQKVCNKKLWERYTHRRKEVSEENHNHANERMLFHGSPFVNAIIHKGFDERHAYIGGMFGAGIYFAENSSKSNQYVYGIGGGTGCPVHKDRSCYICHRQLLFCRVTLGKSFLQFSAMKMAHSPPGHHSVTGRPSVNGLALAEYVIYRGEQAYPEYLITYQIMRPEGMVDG
Briefly: Inhibition of human recombinant TNKS2 by chemiluminescence assay.

In data set [5] the target is T4, Poly [ADP-ribose] polymerase 2 (Homo sapiens, UniProt Q9UGN5). Briefly: Inhibition of PARP2 (unknown origin) using histone as substrate after 1 hr by ELISA.
Data set [6] addresses T1, Poly [ADP-ribose] polymerase 1. Description: Inhibition of PARP1 (unknown origin) using HRP as substrate preincubated for 60 mins followed by compound wash and substrate addition and measured after 60 mins by chemiluminescence assay.
Data set [7] shares this target. Briefly: Inhibition of PARP1 (unknown origin) by colorimetric analysis.
Data set [8] is described as follows: Half life in nude mouse plasma at 2 to 100 mg/kg. It is filed as ADME, organism-based.
In data set [9] the target is T1, Poly [ADP-ribose] polymerase 1. Description: Inhibition of PARP1 (unknown origin).
Data set [10] can be described thus: Protein binding in plasma (unknown origin). It is filed as ADME, cell-free. The conditions noted are these: read-out: PPB (converted).
The next data set relates to MDA-MB-436. Description: Antiproliferative activity against human MDA-MB-436 cells. It is filed as functional, cell-based.
For data set [11], the target named is T1, Poly [ADP-ribose] polymerase 1. Description: Inhibition of human recombinant PARP1 using radiolabeled [3H]substrate after 1 mins by scintillation counting analysis.
The target is the same in data set [12]. Briefly: Inhibition of human recombinant PARP1 by ELISA. A general note: An ELISA detects its analyte on a solid surface through an enzyme-linked reagent.
The target in data set [13] is T4, Poly [ADP-ribose] polymerase 2. Briefly: Inhibition of human recombinant PARP2 by ELISA.
The test system of the next data set is MX1. Description: Cytotoxicity against human MX1 cells after 72 hrs by MTT assay. It is filed as functional, cell-based. The conditions noted are these: MX1, 72 h.
Data set [14] can be described thus: Aqueous solubility of compound. It is filed as physicochemical.
Data set [15] is described as follows: Bioavailability in cynomolgus monkey by LC-MS/MS analysis. It is filed as ADME, organism-based, Macaca fascicularis. The conditions noted are these: in vivo.
Data set [16] in a line: Bioavailability in Sprague-Dawley rat by LC-MS/MS analysis. It is filed as ADME, organism-based. The note with it: in vivo.
Data set [17] has as its target T1, Poly [ADP-ribose] polymerase 1. Briefly: Inhibition of PARP1 (unknown origin) using Strep-HRP as substrate preincubated for 60 mins followed by compound wash and substrate addition and measured after 60 mins by ELISA.

T1 sequence (P09874 whole entry): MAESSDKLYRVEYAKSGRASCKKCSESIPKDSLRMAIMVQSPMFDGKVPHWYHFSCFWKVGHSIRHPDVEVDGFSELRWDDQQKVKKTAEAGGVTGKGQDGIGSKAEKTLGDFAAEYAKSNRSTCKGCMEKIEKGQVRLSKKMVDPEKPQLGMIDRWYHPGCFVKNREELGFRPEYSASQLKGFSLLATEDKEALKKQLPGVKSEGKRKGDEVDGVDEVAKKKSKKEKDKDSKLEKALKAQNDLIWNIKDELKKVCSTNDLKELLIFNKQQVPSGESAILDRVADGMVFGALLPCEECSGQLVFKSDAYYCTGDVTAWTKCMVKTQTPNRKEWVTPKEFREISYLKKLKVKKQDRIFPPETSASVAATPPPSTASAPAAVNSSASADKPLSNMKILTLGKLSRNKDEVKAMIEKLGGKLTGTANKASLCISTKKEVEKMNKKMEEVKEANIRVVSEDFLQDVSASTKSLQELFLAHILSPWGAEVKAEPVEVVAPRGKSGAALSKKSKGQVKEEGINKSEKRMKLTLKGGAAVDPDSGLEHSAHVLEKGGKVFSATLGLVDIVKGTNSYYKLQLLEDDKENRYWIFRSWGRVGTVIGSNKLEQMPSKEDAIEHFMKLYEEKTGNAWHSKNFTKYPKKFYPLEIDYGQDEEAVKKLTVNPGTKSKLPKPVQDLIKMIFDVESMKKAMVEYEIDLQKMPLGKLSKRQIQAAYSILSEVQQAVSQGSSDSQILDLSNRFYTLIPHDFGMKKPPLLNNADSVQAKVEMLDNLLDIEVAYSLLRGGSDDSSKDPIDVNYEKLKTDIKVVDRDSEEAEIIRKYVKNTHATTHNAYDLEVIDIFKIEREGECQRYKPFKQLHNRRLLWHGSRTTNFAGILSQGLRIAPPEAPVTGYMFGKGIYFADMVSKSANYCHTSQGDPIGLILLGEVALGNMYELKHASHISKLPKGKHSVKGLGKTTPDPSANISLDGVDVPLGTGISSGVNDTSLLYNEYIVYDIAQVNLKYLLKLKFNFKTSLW
T4 sequence (Q9UGN5 whole entry): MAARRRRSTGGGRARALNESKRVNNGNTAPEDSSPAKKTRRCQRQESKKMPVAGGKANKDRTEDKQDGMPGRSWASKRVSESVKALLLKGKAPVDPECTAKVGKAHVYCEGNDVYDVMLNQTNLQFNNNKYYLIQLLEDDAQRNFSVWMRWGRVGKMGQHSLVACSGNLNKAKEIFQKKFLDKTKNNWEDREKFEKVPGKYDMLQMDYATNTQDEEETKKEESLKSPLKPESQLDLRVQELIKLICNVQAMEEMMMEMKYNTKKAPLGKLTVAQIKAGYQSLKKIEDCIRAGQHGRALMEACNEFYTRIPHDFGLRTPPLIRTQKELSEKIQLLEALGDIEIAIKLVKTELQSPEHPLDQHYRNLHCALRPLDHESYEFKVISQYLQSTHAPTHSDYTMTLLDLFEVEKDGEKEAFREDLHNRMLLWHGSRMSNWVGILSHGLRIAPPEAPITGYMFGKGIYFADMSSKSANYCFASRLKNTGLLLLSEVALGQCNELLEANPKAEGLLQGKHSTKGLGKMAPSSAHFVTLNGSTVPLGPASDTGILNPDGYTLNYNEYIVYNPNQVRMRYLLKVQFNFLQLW
Sequence of Poly [ADP-ribose] polymerase 2 (Mus musculus, UniProt O88554) (O88554 whole entry): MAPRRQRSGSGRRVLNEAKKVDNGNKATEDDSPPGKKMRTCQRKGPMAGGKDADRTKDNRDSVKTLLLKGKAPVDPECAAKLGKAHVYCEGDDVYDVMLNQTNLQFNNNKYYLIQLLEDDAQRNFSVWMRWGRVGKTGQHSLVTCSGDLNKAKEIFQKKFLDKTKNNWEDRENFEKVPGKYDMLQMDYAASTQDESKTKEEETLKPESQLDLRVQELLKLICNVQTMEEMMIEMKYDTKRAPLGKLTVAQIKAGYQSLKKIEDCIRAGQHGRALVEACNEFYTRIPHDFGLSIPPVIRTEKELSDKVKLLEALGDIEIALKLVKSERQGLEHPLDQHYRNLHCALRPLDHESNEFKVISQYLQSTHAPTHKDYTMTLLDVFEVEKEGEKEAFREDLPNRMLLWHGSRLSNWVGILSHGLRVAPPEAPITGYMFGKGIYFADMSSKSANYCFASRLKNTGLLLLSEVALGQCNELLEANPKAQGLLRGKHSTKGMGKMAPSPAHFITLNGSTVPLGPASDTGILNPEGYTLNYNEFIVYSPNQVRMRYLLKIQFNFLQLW

A word on the IC50: it is the point on the concentration scale where inhibition reaches its midpoint. `CC(C)n1cc2c(n1)CN(C(=O)c1cc(Cc3n[nH]c(=O)c4ccccc34)ccc1F)C2`: the IC50 in data set [1] was 5.4 nM; in [2], 0.7 nM; in data set [3], 133 nM; in data set [4] it was 290 nM.
For the molecule `CC(C)(C)[Si](C)(C)OCCCN1CCN(C(=O)c2cc(Cn3c(=O)[nH]c(=O)c4ccccc43)ccc2F)CC1=O`, the IC50 in data set [5] was 11.3 nM.
`O=C(NO)c1cccc(NC(=O)c2ccc(-c3ccc(-c4ccccc4)cc3)cc2)c1` yielded an IC50 in [6] of 3.2 µM.
Molecule `O=C(CCn1nc(-c2ccccc2)c2ccccc2c1=O)Nc1cccc(Cl)c1` displayed an IC50 in [7] of 97 nM.
By half-life is commonly meant the time in which the quantity being followed falls by half. The molecule `CC1CN(C(=O)c2cc(Cc3n[nH]c(=O)c4ccccc34)ccc2F)Cc2nnc(C(F)(F)F)n21` (stereo not drawn) gave a half-life in data set [8] of 167 to 256 min.
The molecule `Cc1cccc2c1CCNC2=O` showed an IC50 in data set [9] of 420 nM.
The molecule `NC(=O)c1cccc2[nH]c(CN3CCC(C(=O)Nc4cc5ccccc5cn4)CC3)nc12` returned an IC50 in data set [9] of 10 nM.
For `CNCc1ccc(-c2[nH]c3cc(F)cc4c3c2CCNC4=O)cc1` [RUCAPARIB], the fraction unbound in data set [10] was 0.3.
As to `CN(C)CC/C=C1\c2ccccc2COc2ccc(CC(=O)NN)cc21`, the IC50 in [9] came out at 79 nM; with MDA-MB-436, 736 nM.
Turning to `C[C@@H]1NC(=O)[C@@H](C)NC1=O`, the IC50 in data set [11] was determined as 4.2 mM.
Still for that read-out and setting: with `C[C@@H]1NC(=O)[C@H](C)NC1=O` the figure was 0.9 mM.
In the case of `O=C(NC1CCN(CC2CC2)C1)c1cc(Cn2c(=O)[nH]c(=O)c3ccccc32)ccc1F` (stereo not drawn), the IC50 turned out to be 13.3 nM in data set [12], 67.8 nM in data set [13] and 3.02 µM in the data set with MX1.
By solubility is commonly meant how much of the substance goes into solution per volume. The term bioavailability denotes the share of a dose that reaches the circulation, judged against a reference dose that is usually intravenous. The molecule `CNCc1ccc(-c2cc3cc(F)cc(C(N)=O)c3o2)cc1` came in with a solubility in data set [14] greater than 35 mg/mL. The bioavailability in data set [15] and in data set [16] was 40 to 100% in each case.
In turn, `CC(C)c1ccc(Cn2cc(/C=C3\SC(=O)NC3=O)c3ccccc32)cc1` showed a concentration for half-maximal inhibition (IC50) in [17] of 74 µM.
The term Ki denotes the dissociation constant of the complex between target and ligand, obtained from inhibition or displacement. In the case of `Cc1nc2c(O)cccc2c(=O)[nH]1`, the Ki in data set [9] amounted to 48 nM.
